Experimental data reported in publication PMC9116245, “New 1,2,3-triazole linked ciprofloxacin-chalcones induce DNA damage by inhibiting human topoisomerase I& II and tubulin polymerization” (Journal of Enzyme Inhibition and Medicinal Chemistry, 2022).

Experiments:
[1] = test system: 59 human cancer cell lines; test: NCI one-dose screen, whole panel; format: cell-based; settings: Homo sapiens, mean over the panel, read-out: Mean Growth Percent
Procedure: (§1) For screening of anticancer properties, all the developed compounds were chosen by the (NCI) for in-vitro antitumor evaluation. The assay was carried out using 59 human cancer cell lines obtained from nine tumour subpanels (breast, ovarian, melanoma, leukaemia, renal, CNS, lung, prostate, and colon cancer cell lines). Compounds were assessed at a 10 µM concentration. […] Also, hybrids 4a, 4b, 4e, 4i and 4j produced significant anti-proliferative effect in several cancer cells, particularly in leukaemia (RPMI-8226) and colon (HCT116) cells with growth percent of 47.87, −14.59, −24.56, −24.42, −15.84, −9.74, −53.36, −10.26, −31.29, and −39.51%, respectively.
(§2) The method description for NCI anticancer screening is provided in detail in the standard NCI-60 testing protocol.

[2] = test system: A549/ATCC; test: NCI one-dose screen; format: cell-based; settings: Homo sapiens, read-out: Growth Percent
Procedure: as §1, §2

[3] = test system: HOP-62; test: NCI one-dose screen; format: cell-based; settings: Homo sapiens; HOP-62, 10 µM; read-out: Growth Percent
Procedure: as §1, §2

[4] = test system: SK-OV-3; test: NCI one-dose screen; format: cell-based; settings: Homo sapiens; SK-OV-3, 10 µM; read-out: Growth Percent
Procedure: as §1, §2

[5] = test system: M14; test: NCI one-dose screen; format: cell-based; settings: Homo sapiens; M14, 10 µM; read-out: Growth Percent
Procedure: as §1, §2

[6] = test system: MOLT-4; test: NCI one-dose screen; format: cell-based; settings: Homo sapiens; MOLT-4, 10 µM; read-out: Growth Percent
Procedure: as §1, §2

[7] = test system: CAKI-1; test: NCI one-dose screen; format: cell-based; settings: Homo sapiens; CAKI-1, 10 µM; read-out: Growth Percent
Procedure: as §1, §2

[8] = test system: ACHN; test: NCI one-dose screen; format: cell-based; settings: Homo sapiens, read-out: Growth Percent
Procedure: as §1, §2

[9] = test system: MDA-MB-231/ATCC; test: NCI one-dose screen; format: cell-based; settings: Homo sapiens, read-out: Growth Percent
Procedure: as §1, §2

[10] = test system: MCF7; test: NCI one-dose screen; format: cell-based; settings: Homo sapiens; MCF7, 10 µM; read-out: Growth Percent
Procedure: as §1, §2

[11] = test system: BT-549; test: NCI one-dose screen; format: cell-based; settings: Homo sapiens; BT-549, 10 µM; read-out: Growth Percent
Procedure: as §1, §2

[12] = test system: SF-539; test: NCI one-dose screen; format: cell-based; settings: Homo sapiens; SF-539, 10 µM; read-out: Growth Percent
Procedure: as §1, §2

[13] = test system: T-47D; test: NCI one-dose screen; format: cell-based; settings: Homo sapiens, T47D, read-out: Growth Percent
Procedure: as §1, §2

[14] = test system: HCT-15; test: NCI one-dose screen; format: cell-based; settings: Homo sapiens; HCT-15, 10 µM; read-out: Growth Percent
Procedure: as §1, §2

[15] = test system: KM12; test: NCI one-dose screen; format: cell-based; settings: Homo sapiens; KM12, 10 µM; read-out: Growth Percent
Procedure: as §1, §2

[16] = test system: SNB-75; test: NCI one-dose screen; format: cell-based; settings: Homo sapiens; SNB-75, 10 µM; read-out: Growth Percent
Procedure: as §1, §2

[17] = test system: SF-295; test: NCI one-dose screen; format: cell-based; settings: Homo sapiens; SF-295, 10 µM; read-out: Growth Percent
Procedure: as §1, §2

[18] = test system: CCRF-CEM; test: NCI one-dose screen; format: cell-based; settings: Homo sapiens, read-out: Growth Percent
Procedure: as §1, §2

[19] = test system: OVCAR-3; test: NCI one-dose screen; format: cell-based; settings: Homo sapiens; OVCAR-3, 10 µM; read-out: Growth Percent
Procedure: as §1, §2

[20] = test system: HOP-92; test: NCI one-dose screen; format: cell-based; settings: Homo sapiens; HOP-92, 10 µM; read-out: Growth Percent
Procedure: as §1, §2

[21] = test system: SK-MEL-5; test: NCI one-dose screen; format: cell-based; settings: Homo sapiens; SK-MEL-5, 10 µM; read-out: Growth Percent
Procedure: as §1, §2

[22] = test system: TK-10; test: NCI one-dose screen; format: cell-based; settings: Homo sapiens; TK-10, 10 µM; read-out: Growth Percent
Procedure: as §1, §2

[23] = test system: NCI/ADR-RES; test: NCI one-dose screen; format: cell-based; settings: Homo sapiens, read-out: Growth Percent
Procedure: as §1, §2

[24] = test system: UO-31; test: NCI one-dose screen; format: cell-based; settings: Homo sapiens; UO-31, 10 µM; read-out: Growth Percent
Procedure: as §1, §2

[25] = test system: SR; test: NCI one-dose screen; format: cell-based; settings: Homo sapiens, read-out: Growth Percent
Procedure: as §1, §2

[26] = test system: NCI-H460; test: NCI one-dose screen; format: cell-based; settings: Homo sapiens; NCI-H460, 10 µM; read-out: Growth Percent
Procedure: as §1, §2

[27] = test system: SK-MEL-2; test: NCI one-dose screen; format: cell-based; settings: Homo sapiens; SK-MEL-2, 10 µM; read-out: Growth Percent
Procedure: as §1, §2

[28] = test system: IGROV1; test: NCI one-dose screen; format: cell-based; settings: Homo sapiens, IGROV-1; IGROV1, 10 µM; read-out: Growth Percent
Procedure: as §1, §2

[29] = test system: NCI-H226; test: NCI one-dose screen; format: cell-based; settings: Homo sapiens; NCI-H226, 10 µM; read-out: Growth Percent
Procedure: as §1, §2

[30] = test system: SK-MEL-28; test: NCI one-dose screen; format: cell-based; settings: Homo sapiens; SK-MEL-28, 10 µM; read-out: Growth Percent
Procedure: as §1, §2

[31] = test system: MALME-3M; test: NCI one-dose screen; format: cell-based; settings: Homo sapiens, read-out: Growth Percent
Procedure: as §1, §2

[32] = test system: HCT-116; test: NCI one-dose screen; format: cell-based, human; settings: HCT-116, 10 µM; for activity at 10 µM: Homo sapiens, read-out: Growth Percent
Procedure: as §1, §2

[33] = test system: RPMI-8226; test: NCI one-dose screen; format: cell-based, human; settings: RPMI-8226, 10 µM; for activity at 10 µM: Homo sapiens, read-out: Growth Percent
Procedure: as §1, §2

[34] = test system: HT-29; test: MTT assay; format: cell-based; settings: Homo sapiens; HT-29, MTT assay, 24 h incubation
Procedure: (§3) The proliferation of colorectal cancer cells (HCT116, HT29 and Caco-2) was assessed using MTT assay as previously reported. Cells were treated with increasing concentrations of 1, 5, 10, 20, 40, 80 or 100 µM of CP hybrids 4a-j, doxorubicin, or DMSO. See Supplementary Appendix A.

[35] = test system: Caco-2; test: MTT assay; format: cell-based; settings: Homo sapiens; Caco-2, MTT assay, 24 h incubation
Procedure: as §3

[36] = test system: HCT116; test: MTT assay; format: cell-based; settings: Homo sapiens, HCT-116, 24 h incubation
Procedure: as §3

SMILES	activity at 10 µM [1]	activity at 10 µM [2]	activity at 10 µM [3]	activity at 10 µM [4]	activity at 10 µM [5]	activity at 10 µM [6]	activity at 10 µM [7]	activity at 10 µM [8]	activity at 10 µM [9]	activity at 10 µM [10]	activity at 10 µM [11]	activity at 10 µM [12]	activity at 10 µM [13]	activity at 10 µM [14]	activity at 10 µM [15]	activity at 10 µM [16]	activity at 10 µM [17]	activity at 10 µM [18]	activity at 10 µM [19]	activity at 10 µM [20]	other results
O=C(/C=C/c1cccc(Cl)c1)c1ccc(-n2cc(CN3CCN(c4cc5c(cc4F)c(=O)c(C(=O)O)cn5C4CC4)CC3)nn2)cc1 [Compound 4b, (E)-7-(4-((1–(4-(3-(3-chlorophenyl)acryloyl)phenyl)-1H-1,2,3-triazol-4-yl)methyl)piperazin-1-yl)-1-cyclopropyl-6-fluoro-4-oxo-1,4-dihydroquinoline-3-carboxylic acid]	65%	71.6%	67.7%	72.3%	79%	68.2%	52.5%	77.7%	73.6%	37.6%	90.4%	60.1%	75.3%	71.7%	29.9%	89.2%	80.2%	29.9%	57.3%	79.3%	activity at 10 µM [21]: 78.7%; activity at 10 µM [22]: 84.9%; activity at 10 µM [23]: 94.2%; activity at 10 µM [24]: 52.6%; activity at 10 µM [25]: 14.1%; activity at 10 µM [26]: 66.7%; activity at 10 µM [27]: 93%; activity at 10 µM [28]: 51.8%; activity at 10 µM [29]: 82.1%; activity at 10 µM [30]: 95.8%; activity at 10 µM [31]: 94.5%; Growth Percent [32]: -53.36%; activity at 10 µM [32]: -53.4%; activity at 10 µM [33]: -14.6%; Growth Percent [33]: -14.59%; IC50 [34]: 42.9 ± 5.14 µM; IC50 [35]: 24.4 ± 3.07 µM; IC50 [36]: 4.81 ± 1.21 µM
O=C(/C=C/c1ccccc1)c1ccc(-n2cc(CN3CCN(c4cc5c(cc4F)c(=O)c(C(=O)O)cn5C4CC4)CC3)nn2)cc1 [Compound 4a, (E) 7-(4-((1–(4-Cinnamoylphenyl)-1H-1,2,3-triazol-4-yl)methyl)piperazin-1-yl)-1-cyclopropyl-6-fluoro-4-oxo-1,4-dihydroquinoline-3-carboxylic acid]	87.8%	89.8%	78.7%	84.9%	90.1%	102%	87.8%	96.7%	97.1%	72.9%	102%	92.6%	96.4%	93.8%	84.9%	92.7%	95.9%	111%	90.4%	79.9%	activity at 10 µM [21]: 84.3%; activity at 10 µM [22]: 103%; activity at 10 µM [23]: 87.9%; activity at 10 µM [24]: 63.1%; activity at 10 µM [25]: 99.6%; activity at 10 µM [26]: 91.2%; activity at 10 µM [27]: 96.4%; activity at 10 µM [28]: 75.3%; activity at 10 µM [29]: 69.6%; activity at 10 µM [30]: 99.3%; activity at 10 µM [31]: 94.9%; Growth Percent [32]: -9.74%; activity at 10 µM [32]: -9.74%; activity at 10 µM [33]: 47.9%; IC50 [34]: 22.4 ± 3.25 µM; IC50 [35]: 8.39 ± 2.46 µM; IC50 [36]: 3.57 ± 0.59 µM
